The nature of series [1]: (§1) Therapeutic index, ratio of CC50 for african green monkey Vero cells to EC50 for Dengue virus type 2. The note with it: read-out: TI. Type of series: cell-based.
Series [2] in a line: as §1. Type of series: cell-based. The note with it: read-out: TI. The source holds these as a separate data set.
A short description of series [3]: as §1. Format: cell-based. The note with it: read-out: TI. This is another data set of the same source.
In series [4] the test system is dengue virus type 2. The series is described as follows: Antiviral activity against Dengue virus type 2 New Guinea C infected in african green monkey Vero cells assessed as inhibition of virus-induced cytopathic effect by viral yield reduction assay. Type of series: functional.
Series [5] concerns Yellow fever virus. The series is described as follows: Antiviral activity against Yellow fever virus 17D by viral yield reduction assay. Format: functional, organism-based.
Series [6] can be described thus: Cytotoxicity against african green monkey Vero cells. The note with it: chlorocebus sabaeus. Format: cell-based.
Series [7] relates to dengue virus type 2. The series is described as follows: Antiviral activity against Dengue virus type 2 New Guinea C infected in african green monkey Vero cells assessed as inhibition of virus-induced cytopathic effect. Format: functional, organism-based. A general note: Damage to the host cells serves as the signal in cytopathic effect assays.
Series [8] concerns dengue virus type 2. Kind of series: Antiviral activity against Dengue virus type 2 New Guinea C infected in african green monkey Vero cells by neutral red uptake assay. Type of series: functional, organism-based.

Usually CC50 stands for the concentration giving 50% cytotoxicity. As a reminder, the EC90 is the concentration at which the effect reaches the 90% level. For orientation: EC50 means the concentration giving half of the maximal effect.

Converted amounts (≈) assume the structure as drawn. The source made the active and inactive calls. The calls are words filed in the database; no cut-off is given here. Bounds are passed on as bounds.

Consider `O=C(O)c1cnc2c(c1O)c(=O)n(Cc1ccccc1)c(=O)n2Cc1ccccc1`, for which the values for the selectivity ratio in series [1], in series [2] and in series [3] were over 18, over 16 and over 26, respectively. Moreover, the CC50 in series [4] and in series [6] was over 100 µg/mL in each case. In addition, the EC90 in series [4] worked out at 3.8 µg/mL (≈ 9.42 µM). Moreover, the result in series [5] was Active. For the same compound, the EC50 in series [7] came out at 5.7 µg/mL (≈ 14.1 µM); in series [8], 6.3 µg/mL (≈ 15.6 µM).

For the origin of these results see ChEMBL document CHEMBL1152881, “A heterocyclic molecule with significant activity against dengue virus” (Bioorg Med Chem Lett, 2009).
